Experimental data as given in US7115741B2, “4-thieno[2,3-D]pyrimidin-4-YL piperazine compounds” (priority 2001, dated 2006).

System: platelet ADP receptors
Assay: ARB binding assay (platelet ADP receptor binding, [3H]2-MeS-ADP)
Parameters: species or system human
Details: relative activities of selected compounds in the ARB binding assay
Description: Utilizing the second assay the potency of inhibition of such compounds with respect to [^3H]2-MeS-ADP binding to whole platelets is determined. [^3H]2-MeS-ADP binding experiments are routinely performed with outdated human platelets collected by standard procedures at hospital blood banks. Apyrase-washed outdated platelets are prepared as follows (all steps at room temperature, if not indicated otherwise):
Outdated platelet suspensions are diluted with 1 volume of CGS and platelets pelleted by centrifugation at 1900×g for 45 minutes. Platelet pellets are resuspended at 3–6×10^9 platelets/ml in CGS containing 1 U/ml apyrase (grade V, Sigma, St. Louis, Mo.) and incubated for 15 minutes at 37° C. After centrifugation at 730×g for 20 minutes, pellets are resuspended in Hepes-Tyrode's buffer containing 0.1% BSA (Sigma, St. Louis, Mo.) at a concentration of 6.66×10^8 platelets/ml. Binding experiments are performed after >45 minutes resting of the platelets.
Alternatively, binding experiments are performed with fresh human platelets prepared as described in I.(Inhibition of ADP-Mediated Platelet Aggregation in vitro), except that platelets are resuspended in Hepes-Tyrode's buffer containing 0.1% BSA (Sigma, St. Louis, Mo.) at a concentration of 6.66×10^8 platelets/ml. Very similar results are obtained with fresh and outdated platelets.
A platelet ADP receptor binding assay using the tritiated potent agonist ligand [^3H]2-MeS-ADP (Jantzen, H. M. et al. (1999) Thromb. Hemost. 81:111–117) has been adapted to the 96-well microtiter format. In an assay volume of 0.2 ml Hepes-Tyrode's buffer with 0.1% BSA and 0.6% DMSO, 1×10^8 apyrase-washed platelets are preincubated in 96-well flat bottom microtiter plates for 5 minutes with serial dilutions of test compounds before addition of 1 nM [^3H]2-MeS-ADP ([^3H]2-methylthioadenosine-5′-diphosphate, ammonium salt; specific activity 48–49 Ci/mmole, obtained by custom synthesis from Amersham Life Science, Inc., Arlington Heights, Ill., or NEN Life Science Products, Boston, Mass.). Total binding is determined in the absence of test compounds. Samples for nonspecific binding may contain 10^−5 M unlabelled 2-MeS-ADP (RBI, Natick, Mass.). After incubation for 15 minutes at room temperature, unbound radioligand is separated by rapid filtration and two washes with cold (4–8° C.) Binding Wash Buffer (10 mM Hepes pH 7.4, 138 mM NaCl) using a 96-well cell harvester (Minidisc 96, Skatron Instruments, Sterling, Va.) and 8×12 GF/C glassfiber filtermats (Printed Filtermat A, for 1450 Microbeta, Wallac Inc., Gaithersburg, Md.). The platelet-bound radioactivity on the filtermats is determined in a scintillation counter (Microbeta 1450, Wallac Inc., Gaithersburg, Md.). Specific binding is determined by subtraction of non-specific binding from total binding, and specific binding in the presence of test compounds is expressed as % of specific binding in the absence of test compounds dilutions.

SMILES	Relative Activity
CCc1cc2c(N3CCN(C(=O)Cc4ccccc4)CC3)ncnc2s1 [Example 2, 1-[4-(6-ethylthiopheno[3,2-e]pyrimidin-4-yl)piperazinyl]-2-phenylethan-1-one]	+++ (<10 micromolar)
CCc1cc2c(N3CCN(C(=O)CC(F)(F)F)CC3)ncnc2s1 [Example 5, 1-[4-(6-ethylthiopheno[3,2-e]pyrimidin-4-yl)piperazinyl]-3,3,3-trifluoropropan-1-one]	+++ (<10 micromolar)
CCc1cc2c(N3CCN(C(=O)CCC(C)C)CC3)ncnc2s1 [Example 17, 1-[4-(6-ethylthiopheno[3,2-e]pyrimidin-4-yl)piperazinyl]-4-methylpentan-1-one]	+++ (<10 micromolar)
CCc1cc2c(N3CCN(C(=O)C(F)(F)F)CC3)ncnc2s1 [Example 55, 1-[4-(6-ethylthiopheno[3,2-e]pyrimidin-4-yl)piperazinyl]-2,2,2-trifluoroethan-1-one]	+++ (<10 micromolar)
CCc1cc2c(N3CCN(C(=O)C=C(C(F)(F)F)C(F)(F)F)CC3)ncnc2s1 [Example 59, 1-[4-(6-ethylthopheno[3,2-e]pyrimidin-4-yl)pperazinyl]-4,4,4-trifluoro-3-(trifluoromethyl)but-2-en-1-one]	+ (>20 micromolar)
CCc1cc2c(N3CCN(C(=O)Cc4ccncc4)CC3)ncnc2s1 [Example 67, 1-[4-(6-ethylthiopheno[3,2-e]pyrimidin-4-yl)piperazinyl]-2-(4-pyridyl)ethan-1-one]	++ (10–20 micromolar)
CCc1cc2c(N3CCN(C(=O)C(c4ccccc4)c4ccccc4)CC3)ncnc2s1 [Example 70, 1-[4-(6-ethylthiopheno[3,2-e]pyrimidin-4-yl)piperazinyl]-2,2-diphenylethan-1-one]	+ (>20 micromolar)
CCc1cc2c(N3CCN(C(=O)c4ccc(-c5ccccc5)cc4)CC3)ncnc2s1 [Example 71, 4-(6-ethylthiopheno[3,2-e]pyrimidin-4-yl)piperazinyl 4-phenylphenyl ketone]	+++ (<10 micromolar)
CC(C)(C)c1cc2c(N3CCN(C(=O)Cc4ccccc4)CC3)ncnc2s1 [Example 106, 1-{4-[6-(tert-butyl)thiopheno[3,2-e]pyrimidin-4-yl]piperazinyl}-2-phenylethan-1-one]	++ (10–20 micromolar)
O=C(CC(F)(F)F)N1CCN(c2ncnc3sc(-c4ccccc4)cc23)CC1 [Example 111, 3,3,3-trifluoro-1-[4-(6-phenylthiopheno[3,2-e]pyrimidin-4-yl)piperazinyl]propan-1-one]	++ (10–20 micromolar)
O=C(Cc1ccccc1)N1CCN(c2ncnc3sc(Cc4ccccc4)cc23)CC1 [Example 112, 2-phenyl-1-{4-[6-benzylthiopheno[3,2-e]pyrimidin-4-yl]piperazinyl} ethan-1-one]	+++ (<10 micromolar)
O=C(Cc1ccccc1)N1CCN(c2ncnc3sc(Br)cc23)CC1 [Example 125, 1-[4-(6-bromothiopheno[3,2-e]pyrimidin-4-yl)piperazinyl]-2-phenylethan-1-one]	+++ (<10 micromolar)
C#Cc1cc2c(N3CCN(C(=O)CC(F)(F)F)CC3)ncnc2s1 [Example 135, 1-[4-(6-ethlylylthiopheno[3,2-e]pyrimidin-4-yl)piperazinyl]-3,3,3-trifluoropropan-1-one]	+++ (<10 micromolar)
CCc1cc2c(N3CCN(C(=O)Cc4ccccc4)CC3)nc(C)nc2s1 [Example 153, 1-[4-(6-ethyl-2-methylthiopheno[3,2-e]pyrimidin-4-yl)piperazinyl]-2-phenylethan-1-one]	+++ (<10 micromolar)
CCc1cc2c(N3CCN(C(=O)Cc4ccccc4)CC3)nc(SC)nc2s1 [Example 169, 1-[4-(6-ethyl-2-methylthiothiopheno[3,2-e]pyrimidin-4-yl)piperazinyl]-2-phenylethan-1-one]	+++ (<10 micromolar)
CCc1cc2c(N3CCN(C(=O)Cc4ccccc4)CC3)nc(O)nc2s1 [Example 183, 1-[4-(6-ethyl-2-hydroxythiopheno[3,2-e]pyrimidin-4-yl)piperazinyl]-2-phenylethan-1-one]	+ (>20 micromolar)
CCc1cc2c(N3CCCN(C(=O)CCCOn4nnc5ccccc54)CC3)ncnc2s1 [Example 188, 4-benzotriazolyloxy-1-[4-(6-ethylthiopheno[3,2-e]pyrimidin-4-yl)(1,4-diazaperhydroepinyl)]butan-1-one]	+++ (<10 micromolar)
CCc1cc2c(N3CCN(C(=O)Cc4ccccc4)CC3C)ncnc2s1 (centres unmarked) [Example 193, 1-[4-(6-ethylthiopheno[3,2-e]pyrimidin-4-yl)-3-methylpiperazinyl]-2-phenylethan-1-one]	+++ (<10 micromolar)
CCc1cc2c(N3CCN(C(=O)Cc4ccccc4)C(C)C3)ncnc2s1 (centres unmarked) [Example 197, 1-[4-(6-ethylthiopheno[3,2-e]pyrimidin-4-yl)-2-methylpiperazinyl]-2-phenylethan-1-one]	++ (10–20 micromolar)
CCc1cc2c(N3CCN(C(=O)Cc4ccccc4)CC3c3ccccc3)ncnc2s1 (centres unmarked) [Example 206, 1-[4-(6-ethylthiopheno[3,2-e]pyrimidin-4-yl)-3-phenylpiperazinyl]-2-phenylethan-1-one]	+ (>20 micromolar)
CCOC(=O)c1nc(N2CCN(C(=O)Cc3ccccc3)CC2)c2cc(CC)sc2n1 [Example 236, 6-Ethyl-4-(4-phenylacetyl-piperazin-1-yl)-thieno[2,3-d]pyrimidine-2-carboxylic acid ethyl ester]	+++ (<10 micromolar)
CCc1cc2c(N3CCN(C(=O)c4cccc(COn5nnc6ccccc65)c4)CC3)ncnc2s1 [Example 250, [3-(Benzotriazol-1-yloxymethyl)-phenyl]-[4-(6-ethyl-thieno[2,3-d]pyrimidin-4-yl)-piperazin-1-yl]-methanone]	++ (10–20 micromolar)
CCc1cc2c(N3CCN(C(=O)CN4CCCC(n5nnc6ccccc65)C4)CC3)ncnc2s1 (centres unmarked) [Example 271, 2-(3-Benzotriazol-1-yl-piperidin-1-yl)-1-[4-(6-ethyl-thieno[2,3-d]pyrimidin-4-yl)-piperazin-1-yl]-ethanone]	++ (10–20 micromolar)
CCc1cc2c(N3CCN(C(=O)[C@@H]4CCC[C@H](Cn5nnc6ccccc65)C4)CC3)ncnc2s1 [Example 279, (3-Benzotriazol-1-ylmethyl-cyclohexyl)-[4-(6-ethyl-thieno[2,3-d]pyrimidin-4-yl)-piperazin-1-yl]-methanone]	+++ (<10 micromolar)
CCc1cc2c(N3CCN(C(=O)CCCCOc4ccccc4)CC3)ncnc2s1 [Example 305, 1-[4-(6-Ethyl-thieno[2,3-d]pyrimidin-4-yl)-piperazin-1-yl]-5-phenoxy-pentan-1-one]	+++ (<10 micromolar)
CCc1cc2c(N3CCN(C(=O)CCCCC4CCCCC4)CC3)ncnc2s1 [Example 311, 5-Cyclohexyl-1-[4-(6-ethyl-thieno[2,3-d]pyrimidin-4-yl)-piperazin-1-yl]-pentan-1-one]	+ (>20 micromolar)
CCc1cc2c(N3CCN(C(=O)CCCCNC(=O)c4ccccc4)CC3)ncnc2s1 [Example 313, N-{5-[4-(6-Ethyl-thieno[2,3-d]pyrimidin-4-yl)-piperazin-1-yl]-5-oxo-pentyl}-benzamide]	++ (10–20 micromolar)
CCc1cc2c(N3CCN(C(=O)/C=C/c4ccsc4)CC3)ncnc2s1 [Example 320, 1-[4-(6-Ethyl-thieno[2,3-d]pyrimidin-4-yl)-piperazin-1-yl]-3-thiophen-3-yl-propenone]	+ (>20 micromolar)
CCc1cc2c(N3CCN(C(=O)C#Cc4ccccc4)CC3)ncnc2s1 [Example 332, 1-[4-(6-Ethyl-thieno[2,3-d]pyrimidin-4-yl)-piperazin-1-yl]-3-phenyl-propynone]	++ (10–20 micromolar)
